# Laboratory results from paper PMC12057341, “In vitro pharmacokinetic/pharmacodynamic modeling of the effect of mucin on polymyxin B activity against Acinetobacter baumannii” (Antimicrobial Agents and Chemotherapy, 2025).
# Where a SMILES comes first, the peptide text is derived from it. Bridges are numbered along the chain shown (N, C = ends). [ ]: non-standard residue; d: D form. The star is where a group is joined. X1 = CC[C@H](C)CCCCC(=O)*; Dab = NCC[C@H](N)C(=O)O
# System: Acinetobacter baumannii AB121-D0
# Experiment: Time-kill experiments and PK/PD modeling, AB121-D0
# Type: cell-based
# Details: for Unbound PMB concentrations at which regrowth was observed in TK: CAMHB + 1% mucin
# Protocol: Bacteria were cultured overnight under shaking (150–170 rpm) in CAMHB at 35°C. The bacterial suspension was then diluted to 1/50 and incubated at 35°C under shaking until an optical density of 0.3 (corresponding to 1.10^8 CFU/ml of bacteria in the exponential growth phase) was achieved. This bacterial suspension was then diluted in order to obtain a starting inoculum at 1.10^6 CFU/mL. TK experiments were performed in CAMHB in the absence and presence of 1% mucin. PMB concentrations varied from 0.5 mg/L to 128 mg/L for AB121-D0 and 8 mg/L to 512 mg/L for AB122-D12. Drug-free CAMHB was used as bacterial growth control for each strain. Tubes were incubated at 35°C under shaking (150–170 rpm), and aliquots were sampled over time at T0h, T1h, T3h, T6h, T10h, T24h, and T30h. Samples were serially diluted in NaCl 0.9% and plated onto Mueller-Hinton agar supplemented with 1% activated charcoal (to prevent PMB carry-over effect). Bacteria were counted after overnight incubation at 35°C. The limit of quantification was fixed based on CLSI guidelines ([38]) and was equal to 400 CFU/ml (i.e. 2.6 log10 CFU/mL). Experiments were conducted in triplicate for both strains.
# Bacterial counts obtained from TK experiments without mucin were first modeled using NONMEM 7.4 (ICON plc, Dublin, Ireland) with the Laplacian algorithm and the M3 method for handling observations below the limit of quantification ([39]). PMB was assumed to be stable over the course of the experiment as previously shown ([40]). A previously described model with hetero-resistance ([41]), that is, two bacterial subpopulations, one susceptible to PMB (S) and one resistant (R), was used to describe the time course of bacterial counts for the two A. baumannii strains (Fig. 1). Different functions were tested to characterize the PMB killing effect (see supplemental material for model building).
# Then, TK data in the presence of mucin were included in the data set and PMB total concentrations were corrected for mucin binding using equation 1, with unbound PMB concentrations driving the antibacterial effect. Random variability between TK experiments (one experiment corresponding to a replicate of a tested concentration) was included to account for the uncertainty associated with each parameter of equation 1 and thus with the estimation of unbound PMB concentration in TK, such as:
# An impact of mucin on PD model parameters was tested on top of PMB binding to mucin with the following equation:
# (4) Pj=θj,1×(1−Mucin)+θj,2×Mucin,
# where Pj was the jth parameter of the PD model, Mucin was a categorical variable either equal to 0 or 1 depending on its absence or presence in TK experiments respectively, θj,1 and θj,2 corresponded to the Pj value in the absence and in the presence of mucin, respectively. […]
structure (smiles),measurement,setting,value
"CC[C@H](C)CCCCC(=O)N[C@@H](CCN)C(=O)N[C@H](C(=O)N[C@@H](CCN)C(=O)N[C@H]1CCNC(=O)[C@H]([C@@H](C)O)NC(=O)[C@H](CCN)NC(=O)[C@H](CCN)NC(=O)[C@H](CC(C)C)NC(=O)[C@@H](Cc2ccccc2)NC(=O)[C@H](CCN)NC1=O)[C@@H](C)O [PMB, polymyxin B] (X1-[Dab]T[Dab][Dab][Dab][dF]L[Dab][Dab]T; lactam 4-C)",Fold increase of EmaxR in the presence of mucin,1% mucin vs no mucin,1.4 fold
same,Unbound PMB concentrations at which regrowth was observed in TK,one-third of replicates,≤ 13 mg/L
same,Unbound PMB concentrations at which regrowth was observed in TK,two-thirds of replicates,≤ 0.5 mg/L
same,PMB concentrations up to which regrowth was observed in TK after initial CFU decay,"CAMHB without mucin, 30 h",up to 8 mg/L
